From patent US11628160B2, “Compositions and methods for treating brain injury” (Azevan Pharmaceuticals, Inc., priority 2017, dated 2023)

Biological target: T1, human V1a receptor (Homo sapiens, UniProt P37288)
T1 construct: host or cells: CHO cells
Experiment: Human vasopressin V1a receptor binding assay
Conditions: hV1a CHO cell line, competition with 1 nM 3H-AVP; for IC50: read-out: V1a Binding Affinity IC50; for Ki: read-out: V1a Ki
Description: EXAMPLE. Human vasopressin V1a receptor binding assay. A cell line expressing the human V1a receptor in CHO cells (henceforth referred to as the hV1a cell line) was obtained from Dr. Michael Brownstein, NIMH, Bethesda, Md., USA. The hV1a cDNA sequence is described by Thibonnier et al., Journal of Biological Chemistry, 269, 3304-3310 (1994), and the expression method was the same as described by Morel et al. (1992). The hV1a cell line was grown in alpha-MEM with 10% fetal bovine serum and 250 ug/ml G418 (Gibco, Grand Island, N.Y., USA). For competitive binding assay, hV1a cells were plated into 6-well culture plate at 1:10 dilution from a confluency flask, and maintained in culture for at least two days. Culture medium was then removed, cells were washed with 2 ml binding buffer (25 mM Hepes, 0.25% BSA, 1×DMEM, PH=7.0). To each well, 990 μl binding buffer containing 1 nM 3H-AVP was added, and followed by 10 μl series diluted Example compounds dissolved in DMSO. […] 100 nM cold AVP (Sigma) was used to assess non-specific binding. Cells were incubated for 45 minutes at 37° C., assay mixture was removed and each well was washed three times with PBS (pH=7.4). 1 ml 2% SDS was added per well and plates were let sit for 30 minutes. The whole content in a well was transferred to a scintillation vial. Each well was rinsed with 0.5 ml PBS which was then added to the corresponding vial. Scintillation fluid (Ecoscint, National Diagnostics, Atlanta, Ga.) was then added at 3 ml per vial. Samples were counted in a liquid scintillation counter (Beckman LS3801). IC50 values were calculated by Prism Curve fitting software.
All of the alkanedioic esters and amides exemplified in the foregoing examples dissolved in DMSO were tested in this assay. Binding curves were generated according to methods described by Thibonnier et al. (1994). [^3H]-AVP was added to the hV1a cell cultures followed by 10-fold dilutions of each test compound.

T1 sequence (P37288 whole entry): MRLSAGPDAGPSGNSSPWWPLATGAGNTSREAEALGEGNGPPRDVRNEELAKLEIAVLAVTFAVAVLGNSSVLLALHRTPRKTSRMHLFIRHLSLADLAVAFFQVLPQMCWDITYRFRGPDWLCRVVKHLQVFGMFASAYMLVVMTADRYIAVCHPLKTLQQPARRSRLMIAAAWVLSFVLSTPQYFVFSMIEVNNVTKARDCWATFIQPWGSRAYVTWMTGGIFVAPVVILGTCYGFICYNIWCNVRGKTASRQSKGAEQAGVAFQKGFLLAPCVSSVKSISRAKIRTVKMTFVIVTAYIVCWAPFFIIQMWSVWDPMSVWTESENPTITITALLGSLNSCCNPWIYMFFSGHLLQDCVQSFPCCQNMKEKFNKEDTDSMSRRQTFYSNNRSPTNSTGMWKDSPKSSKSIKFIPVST

Row | IC50 [nM] | Ki [nM] | Structure (SMILES)
1 |  | 19 | CC(NC(=O)C(CC(=O)N1CCC(N2CCCCC2)CC1)N1C(=O)C(N2C(=O)OCC2c2ccccc2)C1CCc1ccc(O)cc1)c1ccccc1 (stereo not drawn) [Example 594]
2 | 29.5 | 18.1 | O=C(NCc1ccncc1)C(CCC(=O)N1CCN(C2CCCCC2)CC1)N1C(=O)C(N2C(=O)OCC2c2ccccc2)C1C=Cc1ccccc1 (stereo not drawn) [Example 210]
3 | 2.92 | 1.79 | O=C(NCc1ccccc1)C(CCC(=O)N1CCN(C2CCCCC2)CC1)N1C(=O)C(N2C(=O)OCC2c2ccccc2)C1C=Cc1ccccc1 (stereo not drawn) [Example 191]
4 | 50 |  | O=C(NCc1cccc(C(F)(F)F)c1)[C@H](CC(=O)N1CCN(C2CCCCC2)CC1)N1C(=O)[C@@H](N2C(=O)OC[C@@H]2c2ccccc2)[C@H]1/C=C/c1ccccc1 [Example 66]
5 | 1.52 | 0.93 | O=C(NCc1ccccc1C(F)(F)F)C(CCC(=O)N1CCN(C2CCCCC2)CC1)N1C(=O)C(N2C(=O)OCC2c2ccccc2)C1C=Cc1ccccc1 (stereo not drawn) [Example 182]
6 | 5.1 |  | Cc1ccccc1C(C)(C)NC(=O)C(CCC(=O)N1CCN(C2CCCCC2)CC1)N1C(=O)C(N2C(=O)OCC2c2ccccc2)C1C=Cc1ccccc1 (stereo not drawn) [Example 221]
7 | 5.08 | 3.11 | O=C(NCCc1ccccc1)C(CCC(=O)N1CCN(C2CCCCC2)CC1)N1C(=O)C(N2C(=O)OCC2c2ccccc2)C1C=Cc1ccccc1 (stereo not drawn) [Example 200]
8 | 5.3 | 3.26 | COc1ccccc1CNC(=O)C(CCC(=O)N1CCN(C2CCCCC2)CC1)N1C(=O)C(N2C(=O)OCC2c2ccccc2)C1C=Cc1ccccc1 (stereo not drawn) [Example 220]
9 | ~100 |  | CCCCN(Cc1ccccc1)C(=O)[C@H](CCC(=O)N1CCN(C2CCCCC2)CC1)N1C(=O)[C@@H](N2C(=O)OC[C@@H]2c2ccccc2)[C@H]1/C=C/c1ccccc1 [Example 198]
10 | 1 | 0.66 | O=C(NCc1cccc(Cl)c1)C(CCC(=O)N1CCN(C2CCCCC2)CC1)N1C(=O)C(N2C(=O)OCC2c2ccccc2)C1C=Cc1ccccc1 (stereo not drawn) [Example 187]
11 |  | 0.27 | O=C(NC(c1ccccc1)C(F)(F)F)C(CC(=O)N1CCC(N2CCCCC2)CC1)N1C(=O)C(N2C(=O)OCC2c2ccccc2)C1CCc1ccccc1 (stereo not drawn) [Example 626]
12 | 16.3 | 10 | O=C(NCc1ccccn1)C(CCC(=O)N1CCN(C2CCCCC2)CC1)N1C(=O)C(N2C(=O)OCC2c2ccccc2)C1C=Cc1ccccc1 (stereo not drawn) [Example 208]
13 |  | 0.85 | O=C(NC(c1ccccc1)C(F)(F)F)C(CC(=O)N1CCC(N2CCCCC2)CC1)N1C(=O)C(N2C(=O)OCC2c2ccccc2)C1CCc1ccccc1 (stereo not drawn) [Example 623]
14 | 3.17 | 1.94 | O=C(NC1(c2ccccc2)CCCC1)C(CCC(=O)N1CCN(C2CCCCC2)CC1)N1C(=O)C(N2C(=O)OCC2c2ccccc2)C1C=Cc1ccccc1 (stereo not drawn) [Example 217]
15 | 1.17 | 0.72 | Cc1cccc(CNC(=O)C(CCC(=O)N2CCN(C3CCCCC3)CC2)N2C(=O)C(N3C(=O)OCC3c3ccccc3)C2C=Cc2ccccc2)c1 (stereo not drawn) [Example 193]
16 |  | 0.69 | CN(Cc1cccc(C(F)(F)F)c1)C(=O)C(CC(=O)N1CCC(N2CCCCC2)CC1)N1C(=O)C(N2C(=O)OCC2c2ccccc2)C1CCc1cccc(Br)c1 (stereo not drawn) [Example 617]
17 | 0.88 | 0.54 | O=C(NCc1cccc(Br)c1)C(CCC(=O)N1CCN(C2CCCCC2)CC1)N1C(=O)C(N2C(=O)OCC2c2ccccc2)C1C=Cc1ccccc1 (stereo not drawn) [Example 190]

The next lines start with the molecule.

Row | Structure (SMILES) | IC50 [nM] | Ki [nM]
18 | O=C(NCc1cccc(C(F)(F)F)c1)[C@H](CCC(=O)N1CCN(N2CCCC2)CC1)N1C(=O)[C@@H](N2C(=O)OC[C@@H]2c2ccccc2)[C@H]1/C=C/c1ccccc1 [Example 91] | 3.24 | 1.99
19 | COc1cccc(C=CC2C(N3C(=O)OCC3c3ccccc3)C(=O)N2C(CCC(=O)N2CCN(C3CCCCC3)CC2)C(=O)NC2CCCc3ccccc32)c1 (stereo not drawn) [Example 242] | 2.2 | 1.36
20 | N#Cc1cccc(C=CC2C(N3C(=O)OCC3c3ccccc3)C(=O)N2C(CCC(=O)N2CCN(C3CCCCC3)CC2)C(=O)NC2CCCc3ccccc32)c1 (stereo not drawn) [Example 248] | 5.3 | 3.3
21 | O=C(CC[C@@H](C(=O)N[C@@H]1CCCc2ccccc21)N1C(=O)[C@@H](N2C(=O)OC[C@@H]2c2ccccc2)[C@H]1/C=C/c1ccccc1)N[C@@H]1CCN(Cc2ccccc2)C1 [Example 221AD] | ~50 | 
22 | COc1cc(OC)cc(C(C)(C)NC(=O)C(CCC(=O)N2CCN(C3CCCCC3)CC2)N2C(=O)C(N3C(=O)OCC3c3ccccc3)C2C=Cc2ccccc2)c1 (stereo not drawn) [Example 218] | 7.7 | 4.7
23 | O=C(NCc1cc(Cl)cc(Cl)c1)C(CCC(=O)N1CCN(C2CCCCC2)CC1)N1C(=O)C(N2C(=O)OCC2c2ccccc2)C1C=Cc1ccccc1 (stereo not drawn) [Example 174] | 1.46 | 0.89
24 | CCN1CCN(C(=O)CCC(C(=O)NC2(c3ccccc3)CCCC2)N2C(=O)C(N3C(=O)OCC3c3ccccc3)C2C=Cc2ccccc2)CC1 (stereo not drawn) [Example 239] | 6.6 | 4
25 | O=C(NCc1cc(Cl)ccc1Cl)C(CCC(=O)N1CCN(C2CCCCC2)CC1)N1C(=O)C(N2C(=O)OCC2c2ccccc2)C1C=Cc1ccccc1 (stereo not drawn) [Example 175] | 4.56 | 2.79
26 | COc1cc(CNC(=O)C(CCC(=O)N2CCN(C3CCCCC3)CC2)N2C(=O)C(N3C(=O)OCC3c3ccccc3)C2C=Cc2ccccc2)cc(OC)c1 (stereo not drawn) [Example 201] | 10.5 | 6.43
27 | CCN1CCCC1CNC(=O)CCC(C(=O)NC1CCCc2ccccc21)N1C(=O)C(N2C(=O)OCC2c2ccccc2)C1C=Cc1ccccc1 (stereo not drawn) [Example 221AI] | ~50 | 
28 | O=C(NC1CCCc2ccccc21)C(CCC(=O)N1CCN(C2CCCC2)CC1)N1C(=O)C(N2C(=O)OCC2c2ccccc2)C1C=Cc1ccccc1 (stereo not drawn) [Example 241] | 2 | 1.24
29 | O=C(NC1(c2ccccc2)CCCC1)C(CCC(=O)N1CCN(Cc2ccccc2)CC1)N1C(=O)C(N2C(=O)OCC2c2ccccc2)C1C=Cc1ccccc1 (stereo not drawn) [Example 240] | 25 | 15.5
30 | O=C(NC1CCCc2ccccc21)C(CCC(=O)N1CCN(C2CCCCC2)CC1)N1C(=O)C(N2C(=O)OCC2c2cccc(Cl)c2)C1C=Cc1cccc(Cl)c1 (stereo not drawn) [Example 251] | 0.5 | 0.3
